Assays:
MOLP-8 cells = assay: Cell proliferation assay (alamarBlue), MOLP-8; type: cell-based; conditions: Homo sapiens; MOLP-8 (multiple myeloma), 120 hours
Protocol: (§1) In accordance with the invention, the ability of the substances to inhibit cell proliferation was determined. Cell viability was determined by means of the alamarBlue® reagent (Invitrogen) in a Victor X3 Multilabel Reader (Perkin Elmer). The excitation wavelength was 530 nm and the emission wavelength […].
The MOLP-8 cells (DSMZ, ACC 569) were sown at a concentration of 4000 cells/well in 100 μl of growth medium (RPMI1640, 20% FCS) on 96-well microtitre plates.
(§2) After overnight incubation at 37° C., the fluorescence values were determined (CI values). Then the plates were treated with various substance dilutions (1E-5 M, 3E-6 M, 1E-6 M, 3E-7 M, 1E-7 M, 3E-8 M, 1E-8 M) and incubated at 37° C. over 96 hours (MOLM-13, B16F10, CHL-1 cells) or 120 hours (MOLP-8 cells). Subsequently, the fluorescence values were determined (CO values). For the data analysis, the CI values were subtracted from the CO values and the results were compared between cells which had been treated with various dilutions of the substance or only with buffer solution. The IC50 values (substance concentration needed for 50% inhibition of cell proliferation) were calculated therefrom.

B16F10 cells = assay: Cell proliferation assay (alamarBlue), B16F10; type: cell-based; conditions: Mus musculus, B16-F10; B16F10 (melanoma, BRAF wild-type), 96 hours
Protocol: as §1
The B16F10 cells (ATCC, CRL-6475) were sown at a concentration of 300-500 cells/well in 100 μl of growth medium (DMEM with phenol red, 10% FCS) on 96-well microtitre plates.
as §2

[1] = target: T1, BRD4 bromo domain 1 [BRD4(1)] (Homo sapiens, UniProt O60885); assay: BRD4/acetylated peptide H4 binding assay (TR-FRET), BRD4 bromo domain 1; conditions: inhibition of BRD4(1)/Ac-H4 peptide interaction
T1 construct: N-terminally His6-tagged BRD4(1) (amino acids 67-152); made in house; host or cells: E. coli
In short: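 TR-FRET (665/620 nm ratio) measuring displacement of biotinylated tetra-acetylated H4 peptide from His6-BRD4(1) (aa 67-152, E. coli; typically 10 nM) at pH 7.5. Compound (11 concentrations, 0.1 nM–20 μM, duplicates) was preincubated 10 min at 22°C, then 1 h at 22°C and ≥3 h at 4°C; IC50 from 4-parameter fit normalized to DMSO and no-BRD4 controls.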

MOLM-13 cells = assay: Cell proliferation assay (alamarBlue), MOLM-13; type: cell-based; conditions: Homo sapiens; MOLM-13 (acute myeloid leukaemia), 96 hours
Protocol: as §1
The MOLM-13 cells (DSMZ, ACC 554) were sown at a concentration of 4000 cells/well in 100 μl of growth medium (RPMI1640, 10% FCS) on 96-well microtitre plates.
as §2

Row | IC50 (B16F10 cells) [nM] | IC50 [1] [nM] | IC50 (MOLM-13 cells) [nM] | Compound | IC50 (MOLP-8 cells) [nM]
1 | 2500 | 18 | 140 | C[C@@H]1C(=O)N(C)c2ccc(Nc3cccc(S(=O)(=O)N(C)C)c3)nc2N1C1CCNCC1 [Example 123, 3-{[(3R)-1,3-dimethyl-2-oxo-4-(piperidin-4-yl)-1,2,3,4-tetrahydropyrido[2,3-b]pyrazin-6-yl]amino}-N,N-dimethylbenzene-sulphonamide] | 169
2 | > 20000 | 251 | > 10000 | C[C@@H]1C(=O)N(C)c2ccc(Nc3cccc(C(=O)N[C@H]4CC[C@H](N5CCN(CC6CC6)CC5)CC4)c3)nc2N1C1CCNCC1 [Example 131, N-{trans-4-[4-(cyclo-propylmethyl)piperazin-1-yl]cyclohexyl}-3-{[(3R)-1,3-dimethyl-2-oxo-4-(piperidin-4-yl)-1,2,3,4-tetrahydropyrido[2,3-b]pyrazin-6-yl]amino}benzamide] | > 20000
3 | 381 | 118 | 197 | C[C@@H]1C(=O)N(C)c2ccc(Nc3cccc(C(=O)N4CCN(C)CC4)c3)nc2N1Cc1ccccc1 [Example 75] | 133
4 | 2160 | 45 | 536 | C[C@@H]1C(=O)N(C)c2ccc(Nc3cccc(S(=O)(=O)N(C)C)c3)cc2N1C1CCNCC1 [Example 129, 3-{[(3R)-1,3-dimethyl-2-oxo-4-(piperidin-4-yl)-1,2,3,4-tetrahydroquinoxalin-6-yl]amino}-N,N-dimethylbenzenesulphon-amide] | 567
5 | 944 | 50 | 253 | C[C@@H]1C(=O)N(C)c2ccc(Nc3cccc(S(=O)(=O)NCC4CCN(C)CC4)c3)nc2N1C1CCOCC1 [Example 44, 3-{[(3R)-1,3-dimethyl-2-oxo-4-(tetrahydro-2H-pyran-4-yl)-1,2,3,4-tetrahydropyrido[2,3-b]pyrazin-6-yl]amino}-N-[(1-methylpiperidin-4-yl)methyl]benzene-sulphonamide] | 335
6 | 569 | 80 | 180 | C[C@@H]1C(=O)N(C)c2ccc(Nc3cccc(S(=O)(=O)N[C@H]4CC[C@H](N5CCN(CC6CC6)CC5)CC4)c3)nc2N1C1CCN(C(=O)OC(C)(C)C)CC1 [Example 52, tert-butyl 4-[(3R)-6-{[3-({trans-4-[4-(cyclo-propylmethyl)piperazin-1-yl]cyclohexyl}-sulphamoyl)phenyl]amino}-1,3-dimethyl-2-oxo-2,3-dihydropyrido[2,3-b]pyrazin-4(1H)-yl]piperidine-1-carboxylate] | 133
7 | 1620 | 382 | 2080 | CC(C)N1c2nc(Nc3cccc(C(=O)N4CCN(CC5CC5)CC4)c3)ccc2N(C)C(=O)[C@H]1C [Example 88, (3R)-6-[(3-{[4-(cyclo-propylmethyl)piperazin-1-yl]carbonyl}phenyl)amino]-4-isopropyl-1,3-dimethyl-3,4-dihydropyrido[2,3-b]pyrazin-2(1H)-one] | 876
8 | 423 | 77 | 97 | CC(C)N1c2nc(Nc3cccc(S(=O)(=O)NC4CCN(C)CC4)c3)ccc2N(C)C(=O)[C@H]1C [Example 51, 3-{[(3R)-4-isopropyl-1,3-dimethyl-2-oxo-1,2,3,4-tetrahydropyrido[2,3-b]pyrazin-6-yl]amino}-N-(1-methylpiperidin-4-yl)benzenesulphonamide] | 58

Further lines, the compound ahead of its results:

Row | Compound | IC50 (B16F10 cells) [nM] | IC50 [1] [nM] | IC50 (MOLM-13 cells) [nM] | IC50 (MOLP-8 cells) [nM]
9 | CNS(=O)(=O)c1cccc(Nc2ccc3c(n2)N(C2CCOCC2)[C@H](C)C(=O)N3C)c1 [Example 39, 3-{[(3R)-1,3-dimethyl-2-oxo-4-(tetrahydro-2H-pyran-4-yl)-1,2,3,4-tetrahydropyrido[2,3-b]pyrazin-6-yl]amino}-N-methylbenzenesulphon-amide] | 149 | 38 | 90 | 91
10 | C[C@@H]1C(=O)N(C)c2ccc(Nc3cccc(S(=O)(=O)N4CCCC4)c3)nc2N1C1CCN(C)CC1 [Example 24, (3R)-1,3-Dimethyl-4-(1-methylpiperidin-4-yl)-6-{[3-(pyrrolidin-1-ylsulphonyl)phenyl]amino}-3,4-dihydropyrido[2,3-b]pyrazin-2(1H)-one] | 112 | 16 | 20 | 11
11 | C[C@@H]1C(=O)N(C)c2ccc(Nc3cccc(S(=O)(=O)N4CCCC4)c3)nc2N1C1CCOCC1 [Example 27, (3R)-1,3-Dimethyl-6-{[3-(pyrrolidin-1-ylsulphonyl)phenyl]amino}-4-(tetrahydro-2H-pyran-4-yl)-3,4-dihydropyrido[2,3-b]pyrazin-2(1H)-one] | 60 | 17 | 41 | 30
12 | C[C@@H]1C(=O)N(C)c2ccc(Nc3cccc(S(=O)(=O)N[C@H]4CC[C@H](N5CCN(CC6CC6)CC5)CC4)c3)nc2N1Cc1ccccc1 [Example 38, 3-{[(3R)-4-benzyl-1,3-dimethyl-2-oxo-1,2,3,4-tetrahydropyrido[2,3-b]pyrazin-6-yl]amino}-N-{trans-4-[4-(cyclopropyl-methyl)piperazin-1-yl]cyclohexyl}-benzenesulphonamide] | 190 | 19 | 20 | 12
13 | COc1ccc(CN2c3cc(Nc4cccc(S(=O)(=O)N(C)C)c4)ccc3N(C)C(=O)[C@H]2C)cc1 [Example 10, 3-{[(3R)-4-(4-Methoxybenzyl)-1,3-dimethyl-2-oxo-1,2,3,4-tetrahydroquinoxalin-6-yl]amino}-N,N-dimethylbenzenesulphonamide] | 122 | 159 | 233 | 82
14 | CC(C)N1c2nc(Nc3cccc(S(=O)(=O)N[C@H]4CC[C@H](N5CCN(CC6CC6)CC5)CC4)c3)ccc2N(C)C(=O)[C@H]1C [Example 34, N-{trans-4-[4-(cyclopropylmethyl)piperazin-1-yl]cyclohexyl}-3-{[(3R)-4-isopropyl-1,3-dimethyl-2-oxo-1,2,3,4-tetrahydropyrido[2,3-b]pyrazin-6-yl]amino}-benzenesulphonamide] | 202 | 23 | 55 | 20
15 | COc1ccc(S(=O)(=O)N2CCOCC2)cc1Nc1ccc2c(n1)N(C1CCOCC1)[C@H](C)C(=O)N2C [Example 28, (3R)-6-{[2-Methoxy-5-(morpholin-4-ylsulphonyl)phenyl]amino}-1,3-dimethyl-4-(tetrahydro-2H-pyran-4-yl)-3,4-dihydropyrido[2,3-b]pyrazin-2(1H)-one] | 30 | 26 | 21 | 18
16 | CCNS(=O)(=O)c1cccc(Nc2ccc3c(n2)N(C2CCOCC2)[C@H](C)C(=O)N3C)c1 [Example 23, 3-{[(3R)-1,3-dimethyl-2-oxo-4-(tetrahydro-2H-pyran-4-yl)-1,2,3,4-tetrahydropyrido[2,3-b]pyrazin-6-yl]amino}-N-ethylbenzenesulphonamide] | 44 | 15 | 47 | 37
17 | C[C@@H]1C(=O)N(C)c2ccc(Nc3cccc(C(=O)N4CCN(C)CC4)c3)nc2N1C1CCCC1 [Example 1, (3R)-4-Cyclopentyl-1,3-dimethyl-6-({3-[(4-methylpiperazin-1-yl)carbonyl]phenyl}amino)-3,4-dihydropyrido[2,3-b]pyrazin-2(1H)-one] | 661 | 67 | 613 | 337

Source: patent US20160176867A1, “MODIFIED BET-PROTEIN-INHIBITING DIHYDROQUINOXALINONES AND DIHYDROPYRIDOPYRAZINONES” (BAYER PHARMA AKTIENGESELLSCHAFT, priority 2013, published 2016)
